The numbers were not newly measured in patent US20070027107A1, “Compositions and methods for treating estrogen-dependent diseases and conditions” (priority 2005, published 2007), which cites them from elsewhere.

Broadly, the pKa is the negative logarithm of the acid dissociation constant.

For the data set the following is noted: free carboxylic acids (without counterion) of alginate residues.

In the case of `O=C[C@@H](O)[C@@H](O)[C@H](O)[C@H](O)C(=O)O` [M, D-mannuronic acid], the pKa is 3.38.
As to `O=C[C@@H](O)[C@@H](O)[C@H](O)[C@@H](O)C(=O)O` [G, L-guluronic acid], the pKa is 3.65.
